# Measurements reported in US9290453B2 (Merck Sharp & Dohme Corp., priority 2010, dated 2016).
# Structures can show the parent of a compound that is named as a salt.
# Target: T1, hCRTH2 (Homo sapiens, UniProt Q9Y5Y4)
# T1 construct: expressed in transfected cells; host or cells: HEK (human embryonic kidney) cells expressing hCRTH2
# T1 sequence (Q9Y5Y4 1-395): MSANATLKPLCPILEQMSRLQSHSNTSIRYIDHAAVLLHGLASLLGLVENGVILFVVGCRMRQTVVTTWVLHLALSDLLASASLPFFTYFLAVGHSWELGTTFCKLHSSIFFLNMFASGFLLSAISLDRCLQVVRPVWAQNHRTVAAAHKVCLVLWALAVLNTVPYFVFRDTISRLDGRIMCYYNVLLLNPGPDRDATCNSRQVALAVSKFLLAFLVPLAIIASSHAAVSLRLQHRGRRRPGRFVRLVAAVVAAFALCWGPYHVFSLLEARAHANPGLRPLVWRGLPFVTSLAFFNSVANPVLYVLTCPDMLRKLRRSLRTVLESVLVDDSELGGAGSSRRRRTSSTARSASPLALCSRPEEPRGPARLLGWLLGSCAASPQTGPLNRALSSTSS
# Assay: Radioligand Binding Assay A ([3H]PGD2 filtration binding, HEK-hCRTH2 membranes)
# Details: Table A, rated A-D
# Experimental: Radioligand binding assays were performed at room temperature in 50 mM Tris-HCl pH 7.4, 1 mM EDTA containing 2 mM MnCl2 and 3.0 nM [^3H]PGD2 (New England Nuclear, Boston, Mass.) (171 Ci mmol^−1), in a final volume of 0.2 ml. Competing ligands were diluted in dimethylsulfoxide (Me2SO) that was kept constant at 1% (v/v) of the final incubation volume. The reaction was initiated by the addition of 8-20 μg of membrane protein prepared from a human embryonic kidney (HEK)-hCRTH2 cell line. Total and non-specific binding were determined in the absence and the presence of 10 μM PGD2, respectively. Under these conditions, specific binding (total minus non-specific) of the radioligand to the receptor reached equilibrium within 50 min and was stable up to 180 min. The reaction was routinely conducted for 60 min at room temperature and terminated by rapid filtration through prewetted (0.3% polyethyleneimine) 96-well printed Filtermate™ (Wallac) using a Tomtec® harvester (Hamden, Conn.). After washing with cold buffer, the filter was dried for 2 minutes in microwave, and Meltilex Scintillator sheet (Wallac) was melted on for 2 min. The radioactivity was measured with Betaplate model 1205 (Wallac).
row,Ki,SMILES
1,2.1 to 20 nM,"O=C(O)CCCCc1cc2cc(C(=O)N[C@H](c3ccc(Cl)cc3)C(F)(F)F)ccc2nc1-c1ccccc1 [Compound 1AF, 6-[[[1(R)-(4-chlorophenyl)-2,2,2-trifluoroethyl]amino]carbonyl]-2-phenyl-3-quinolinepentanoic acid]"
2,2.1 to 20 nM,"O=C(O)CCCCc1cc2cc(C(=O)N[C@H]3CCCc4ccccc43)ccc2nc1-c1ccccc1 [Compound 1P, 2-phenyl-6-[[(1,2,3,4-tetrahydro-1(S)-naphthalenyl)amino]carbonyl]-3-quinolinepentanoic acid]"
3,2.1 to 20 nM,"O=C(O)CCCCc1cc2cc(C(=O)N3CC[C@H](c4ccccc4)C3)ccc2nc1-c1ccccc1 [Compound 1J, 2-phenyl-6-[(3(R)-phenyl-1-pyrrolidinyl)carbonyl]-3-quinolinepentanoic acid]"
4,2.1 to 20 nM,"O=C(O)CCCCc1cc2cc(C(=O)NCc3ccc(Cl)cc3)ccc2nc1-c1ccccc1 [Compound 2B, 6-[[[(4-chlorophenyl)methyl]amino]carbonyl]-2-phenyl-3-quinolinepentanoic acid]"
5,20.1 to 200 nM,"O=C(O)CCCCc1cc2cc(C(=O)NCc3ccncc3)ccc2nc1-c1ccccc1 [Compound 1Y, 2-phenyl-6-[[(4-pyridinylmethyl)amino]carbonyl]-3-quinolinepentanoic acid]"
6,20.1 to 200 nM,"CN(Cc1cccc(C(F)(F)F)c1)C(=O)c1ccc2nc(-c3ccc(F)cc3)c(CCCCC(=O)O)cc2c1 [Compound 5W, 2-(4-fluorophenyl)-6-[[methyl[[3-(trifluoromethyl)phenyl]methyl]amino]carbonyl]-3-quinolinepentanoic acid]"
7,2.1 to 20 nM,"O=C(O)CCCCc1nc2cc(C(=O)NCc3ccc(OC(F)(F)F)cc3)ccc2cc1-c1ccccc1 [Compound 3, 5-(3-phenyl-7-(4-(trifluoromethoxy)benzylcarbamoyl)quinolin-2-yl)pentanoic acid]"
8,20.1 to 200 nM,"O=C(O)CCCCc1cc2cc(C(=O)N[C@H]3CCCc4ccc(F)cc43)cnc2nc1-c1ccc(F)cc1 [Compound 6o, 2-(4-fluorophenyl)-6-[[(7-fluoro-1,2,3,4-tetrahydro-1(S)-naphthalenyl)amino]carbonyl]-1,8-naphthyridine-3-pentanoic acid]"
9,20.1 to 200 nM,"COc1ccc([C@H](NC(=O)c2cnc3nc(-c4ccc(F)cc4)c(CCCCC(=O)O)cc3c2)C(F)(F)F)cc1 [Compound 6P, 2-(4-fluorophenyl)-6-[[[2,2,2-trifluoro-1(S)-(4-methoxyphenyl)ethyl]amino]carbonyl]-1,8-naphthyridine-3-pentanoic acid]"
10,2.1 to 20 nM,"O=C(O)CCCCc1cc2cc(C(=O)N[C@@H]3CCCc4ccccc43)ccc2nc1-c1ccccc1 [Compound 1o, 2-phenyl-6-[[(1,2,3,4-tetrahydro-1(R)-naphthalenyl)amino]carbonyl]-3-quinolinepentanoic acid]"
11,2.1 to 20 nM,"O=C(O)CCCCc1cc2cc(C(=O)N[C@@H](c3ccccc3)C(F)(F)F)ccc2nc1-c1ccccc1 [Compound 1G, 2-phenyl-6-[[(2,2,2-trifluoro-1(S)-phenylethyl)amino]carbonyl]-3-quinolinepentanoic acid]"
12,0.1 to 2 nM,"C[C@@H](NC(=O)c1ccc2cc(-c3ccccc3)c(CCCCC(=O)O)nc2c1)c1ccc(Cl)cc1 [Compound 3F, 7-[[[1(R)-(4-chlorophenyl)ethyl]amino]carbonyl]-3-phenyl-2-quinolinepentanoic acid]"
13,2.1 to 20 nM,"CN(Cc1ccccc1)C(=O)c1ccc2nc(-c3ccccc3)c(CCCCC(=O)O)cc2c1 [Compound 1U, 6-[[methyl(phenylmethyl)amino]carbonyl]-2-phenyl-3-quinolinepentanoic acid]"
14,2.1 to 20 nM,"O=C(O)CCCCc1cc2cc(C(=O)NCc3cccc(Cl)c3)ccc2nc1-c1ccccc1 [Compound 1D, 6-[[[(3-chlorophenyl)methyl]amino]carbonyl]-2-phenyl-3-quinolinepentanoic acid]"
15,20.1 to 200 nM,"O=C(O)CCCCc1cc2cc(C(=O)NCc3cccnc3)ccc2nc1-c1ccccc1 [Compound 1X, 2-phenyl-6-[[(3-pyridinylmethyl)amino]carbonyl]-3-quinolinepentanoic acid]"
16,20.1 to 200 nM,"CC(NC(=O)c1ccc2nc(-c3ccccc3)c(CCCCC(=O)O)cc2c1)c1ccncc1 (stereo not shown) [Compound 1W, 2-phenyl-6-[[[1-(4-pyridinyl)ethyl]amino]carbonyl]-3-quinolinepentanoic acid]"

row,Ki,SMILES
1,2.1 to 20 nM,"C[C@@H](NC(=O)c1ccc2nc(-c3ccccc3)c(CCCCC(=O)O)cc2c1)c1ccccc1 [Compound 1S, 2-phenyl-6-[[(l(R)-phenylethyl)amino]carbonyl]-3-quinolinepentanoic acid]"
2,2.1 to 20 nM,"O=C(O)CCCCc1cc2cc(C(=O)N[C@H]3CCc4ccccc43)ccc2nc1-c1ccccc1 [Compound 1N, 6-[[(2,3-dihydro-1H-inden-1(S)-yl)amino]carbonyl]-2-phenyl-3-quinolinepentanoic acid]"
3,2.1 to 20 nM,C[C@H](NC(=O)c1ccc2nc(-c3ccc(F)cc3)c(CCCCC(=O)O)cc2c1)c1ccc(Cl)cc1 [Compound 5i]
4,2.1 to 20 nM,"O=C(O)CCCCc1cc2cc(C(=O)N[C@H](c3ccccc3)C(F)(F)F)ccc2nc1-c1ccccc1 [Compound 1H, 2-phenyl-6-[[(2,2,2-trifluoro-1(R)-phenylethyl)amino]carbonyl]-3-quinolinepentanoic acid]"
5,2.1 to 20 nM,"O=C(O)CCCCc1cc2cc(C(=O)N[C@@H]3CCCc4cc(Cl)ccc43)ccc2nc1-c1ccc(F)cc1 [Compound 5P, 6-[[(6-chloro-1,2,3,4-tetrahydro-1(R)-naphthalenyl)amino]carbonyl]-2-(4-fluorophenyl)-3-quinolinepentanoic acid]"
6,2.1 to 20 nM,"O=C(O)CCCCc1nc2cc(C(=O)N3CC[C@H](c4ccccc4)C3)ccc2cc1-c1ccccc1 [Compound 3i, 3-phenyl-7-[(3(R)-phenyl-1-pynolidinyl)carbonyl]-2-quinolinepentanoic acid]"
7,20.1 to 200 nM,"C[C@H](NC(=O)c1cnc2nc(-c3ccc(F)cc3)c(CCCCC(=O)O)cc2c1)c1ccc(Cl)cc1 [Compound 6J, 6-[[[1(S)-(4-chlorophenyl)ethyl]amino]carbonyl]-2-(4-fluorophenyl)-1,8-naphthyridine-3-pentanoic acid]"
8,2.1 to 20 nM,"CCCCCCCCCNC(=O)c1ccc2nc(-c3ccccc3)c(CCCCC(=O)O)cc2c1 [Compound 1AC, 6-[(nonylamino)carbonyl]-2-phenyl-3-quinolinepentanoic acid]"
9,2.1 to 20 nM,"O=C(O)CCCCc1cc2cc(C(=O)N[C@H]3CCc4cc(Cl)ccc43)cnc2nc1-c1ccc(F)cc1 [Compound 6L, 6-[[(5-chloro-2,3-dihydro-1H-inden-1(S)-yl)amino]carbonyl]-2-(4-fluorophenyl)-1,8-naphthyridine-3-pentanoic acid]"
10,2.1 to 20 nM,"O=C(O)CCCCc1cc2cc(C(=O)N[C@H]3CCc4cc(Cl)ccc43)ccc2nc1-c1ccc(F)cc1 [Compound 5R, 6-[[(5-chloro-2,3-dihydro-1H-inden-1(S)-yl)amino]carbonyl]-2-(4-fluorophenyl)-3-quinolinepentanoic acid]"
11,20.1 to 200 nM,"O=C(O)CCCCc1cc2cc(C(=O)N[C@@H]3CCCc4ccc(F)cc43)cnc2nc1-c1ccc(F)cc1 [Compound 6H, 2-(4-fluorophenyl)-6-[[(7-fluoro-1,2,3,4-tetrahydro-1(R)-naphthalenyl)amino]carbonyl]-1,8-naphthyridine-3-pentanoic acid]"
12,2.1 to 20 nM,"O=C(O)CCCCc1cc2cc(C(=O)N[C@@H]3CCc4ccc(F)cc43)ccc2nc1-c1ccc(F)cc1 [Compound 5F, 6-[[(6-fluoro-2,3-dihydro-1H-inden-1(R)-yl)amino]carbonyl]-2-(4-fluorophenyl)-3-quinolinepentanoic acid]"
13,2.1 to 20 nM,"C[C@@H](NC(=O)c1ccc2nc(-c3ccccc3)c(CCCCC(=O)O)cc2c1)c1ccc(Cl)cc1 [Compound 1AD, 6-[[[1(R)-(4-chlorophenyl)ethyl]amino]carbonyl]-2-phenyl-3-quinolinepentanoic acid]"
14,2.1 to 20 nM,"O=C(O)CCCCc1cc2cc(C(=O)NCc3ccc(OC(F)(F)F)cc3)ccc2nc1-c1ccccc1 [Compound 1, 5-(2-phenyl-6-(4-(trifluoromethoxy)benzylcarbamoyl)quinolin-3-yl)pentanoic acid trifluoroacetate]"
15,2.1 to 20 nM,"CN(Cc1ccc(Cl)cc1)C(=O)c1ccc2nc(-c3ccc(F)cc3)c(CCCCC(=O)O)cc2c1 [Compound 5U, 6-[[[(4-chlorophenyl)methyl]methylamino]carbonyl]-2-(4-fluorophenyl)-3-quinolinepentanoic acid]"
16,2.1 to 20 nM,"O=C(O)CCCCc1cc2cc(C(=O)N[C@@H]3CCc4cc(Cl)ccc43)ccc2nc1-c1ccc(F)cc1 [Compound 5o, 6-[[(5-chloro-2,3-dihydro-1H-inden-1(R)-yl)amino]carbonyl)-2-(4-fluorophenyl)-3-quinolinepentanoic acid]"

# Same assay, conditions: values in text
row,Ki,SMILES
1,28.9 nM,"O=C(O)CCCCc1cc2cc(C(=O)NCc3cccnc3)ccc2nc1-c1ccccc1 [Compound 1X, 2-phenyl-6-[[(3-pyridinylmethyl)amino]carbonyl]-3-quinolinepentanoic acid]"
2,161 nM,"O=C(O)CCCCc1cc2cc(C(=O)N[C@@H]3CCCc4ccc(F)cc43)cnc2nc1-c1ccc(F)cc1 [Compound 6H, 2-(4-fluorophenyl)-6-[[(7-fluoro-1,2,3,4-tetrahydro-1(R)-naphthalenyl)amino]carbonyl]-1,8-naphthyridine-3-pentanoic acid]"
3,13.6 nM,"O=C(O)CCCCc1cc2cc(C(=O)N[C@@H]3CCc4ccc(F)cc43)ccc2nc1-c1ccc(F)cc1 [Compound 5F, 6-[[(6-fluoro-2,3-dihydro-1H-inden-1(R)-yl)amino]carbonyl]-2-(4-fluorophenyl)-3-quinolinepentanoic acid]"
4,3.5 nM,"C[C@@H](NC(=O)c1ccc2nc(-c3ccccc3)c(CCCCC(=O)O)cc2c1)c1ccc(Cl)cc1 [Compound 1AD, 6-[[[1(R)-(4-chlorophenyl)ethyl]amino]carbonyl]-2-phenyl-3-quinolinepentanoic acid]"
5,2.7 nM,"O=C(O)CCCCc1cc2cc(C(=O)N[C@@H]3CCc4cc(Cl)ccc43)ccc2nc1-c1ccc(F)cc1 [Compound 5o, 6-[[(5-chloro-2,3-dihydro-1H-inden-1(R)-yl)amino]carbonyl)-2-(4-fluorophenyl)-3-quinolinepentanoic acid]"
